According to ChEMBL document CHEMBL1126451, “Characterization of LY806303 as a potent and selective inhibitor of thrombin” (Bioorg Med Chem Lett, 1992):
Non-standard residues stand in square brackets, D forms with d. Residues, ends and D or L forms follow the SMILES beside them. dNMePhg = CN[C@@H](C(=O)O)c1ccccc1; NMePhg = CN[C@H](C(=O)O)c1ccccc1

Assays:
Coagulation factor X [1] = molecular target: T1, Coagulation factor X (Bos taurus, UniProt P00743); experiment: In vitro concentration of compound required to inhibit 50% of Factor Xa
T1 sequence (P00743 41-180 limits assumed): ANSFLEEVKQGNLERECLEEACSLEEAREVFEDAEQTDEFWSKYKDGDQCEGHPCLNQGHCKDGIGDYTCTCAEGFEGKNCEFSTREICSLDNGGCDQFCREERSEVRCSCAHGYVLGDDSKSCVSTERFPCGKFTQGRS
T1 sequence (P00743 234-492 limits assumed): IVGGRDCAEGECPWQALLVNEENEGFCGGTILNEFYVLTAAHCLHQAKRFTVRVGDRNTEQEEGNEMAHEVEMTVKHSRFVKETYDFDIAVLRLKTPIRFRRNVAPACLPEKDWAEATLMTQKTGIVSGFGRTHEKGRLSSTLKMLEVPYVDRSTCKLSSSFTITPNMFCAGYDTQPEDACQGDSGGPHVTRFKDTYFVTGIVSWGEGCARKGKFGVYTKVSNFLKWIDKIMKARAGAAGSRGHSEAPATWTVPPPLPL

[2] = In vitro concentration of compound required to inhibit 50% of nt-PA; parameters: species or system Homo sapiens
Plasminogen [3] = molecular target: T2, Plasminogen (Homo sapiens, UniProt P00747); experiment: In vitro concentration of compound required to inhibit 50% of Plasmin
T2 sequence (P00747 97-580 limits assumed): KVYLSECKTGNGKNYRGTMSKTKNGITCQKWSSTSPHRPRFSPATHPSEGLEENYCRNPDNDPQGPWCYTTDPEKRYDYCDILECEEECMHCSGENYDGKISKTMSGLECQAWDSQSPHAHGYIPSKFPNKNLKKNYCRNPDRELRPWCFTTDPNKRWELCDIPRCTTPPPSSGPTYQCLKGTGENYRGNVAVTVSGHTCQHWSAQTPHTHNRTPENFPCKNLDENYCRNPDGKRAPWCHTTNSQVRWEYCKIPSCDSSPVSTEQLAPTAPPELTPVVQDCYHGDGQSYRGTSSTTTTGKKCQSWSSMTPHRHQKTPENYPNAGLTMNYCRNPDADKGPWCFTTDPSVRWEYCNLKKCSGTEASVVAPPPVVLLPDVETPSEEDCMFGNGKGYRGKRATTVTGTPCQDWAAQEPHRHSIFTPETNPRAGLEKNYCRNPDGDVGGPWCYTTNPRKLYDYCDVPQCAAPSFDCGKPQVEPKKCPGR
T2 sequence (P00747 581-810 limits assumed): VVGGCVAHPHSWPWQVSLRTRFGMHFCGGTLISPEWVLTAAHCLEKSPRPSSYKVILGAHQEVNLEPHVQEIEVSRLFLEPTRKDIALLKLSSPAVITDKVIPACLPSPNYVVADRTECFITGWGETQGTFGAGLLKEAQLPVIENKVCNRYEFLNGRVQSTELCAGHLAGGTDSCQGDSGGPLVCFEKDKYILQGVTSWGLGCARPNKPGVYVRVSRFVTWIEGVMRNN

Serine protease 1 = molecular target: T3, Serine protease 1 (Bos taurus, UniProt P00760); experiment: In vitro concentration of compound required to inhibit 50% of trypsin
T3 sequence (P00760 whole entry): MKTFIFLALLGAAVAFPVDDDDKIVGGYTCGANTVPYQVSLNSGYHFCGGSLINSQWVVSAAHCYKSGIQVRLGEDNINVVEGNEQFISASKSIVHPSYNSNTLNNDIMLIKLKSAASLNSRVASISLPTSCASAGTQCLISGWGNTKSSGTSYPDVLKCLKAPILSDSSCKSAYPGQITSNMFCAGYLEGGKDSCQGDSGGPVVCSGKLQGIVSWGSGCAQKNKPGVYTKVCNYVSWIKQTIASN

Plasma kallikrein [4] = molecular target: T4, Plasma kallikrein (Homo sapiens, UniProt P03952); experiment: In vitro concentration of compound required to inhibit 50% of Kallikrein
T4 sequence (P03952 20-390 limits assumed): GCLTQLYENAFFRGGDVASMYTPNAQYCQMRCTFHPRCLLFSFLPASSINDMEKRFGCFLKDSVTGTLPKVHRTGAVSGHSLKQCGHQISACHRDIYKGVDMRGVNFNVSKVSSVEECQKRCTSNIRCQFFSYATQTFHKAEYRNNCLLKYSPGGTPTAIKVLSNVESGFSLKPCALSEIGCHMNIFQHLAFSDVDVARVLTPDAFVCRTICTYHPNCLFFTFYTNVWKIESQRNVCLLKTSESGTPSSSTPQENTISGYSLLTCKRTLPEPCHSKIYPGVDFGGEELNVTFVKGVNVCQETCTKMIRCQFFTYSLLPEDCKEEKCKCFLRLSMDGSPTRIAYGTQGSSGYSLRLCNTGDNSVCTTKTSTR
T4 sequence (P03952 391-638 limits assumed): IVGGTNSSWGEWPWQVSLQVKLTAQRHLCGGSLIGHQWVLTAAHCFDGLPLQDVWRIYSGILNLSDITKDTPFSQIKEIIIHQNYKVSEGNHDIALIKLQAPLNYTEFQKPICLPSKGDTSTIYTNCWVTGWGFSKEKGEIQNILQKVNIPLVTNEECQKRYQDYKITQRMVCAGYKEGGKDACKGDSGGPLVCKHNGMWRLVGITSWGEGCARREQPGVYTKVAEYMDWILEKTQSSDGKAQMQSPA

Prothrombin = Prothrombin (Bos taurus, UniProt P00735)
Description: In vitro concentration of compound required to inhibit 50% of 6 nM thrombin

Plasminogen [5] = molecular target: T2, Plasminogen; experiment: In vitro concentration of compound required to inhibit 50% of plasmin
Coagulation factor X [6] = molecular target: T1, Coagulation factor X; experiment: In vitro concentration of compound required to inhibit 50% of factor Xa
Plasma kallikrein [7] = molecular target: T4, Plasma kallikrein; experiment: In vitro concentration of compound required to inhibit 50% of kallikrein

| Structure (SMILES) | IC50 [2] | IC50 (Serine protease 1) | IC50 (Prothrombin) | further results |
| --- | --- | --- | --- | --- |
| COC(=O)c1oc2c(sc3ccccc32)c1OC(=O)C(C)C | 160 µM | 29 µM | – | IC50 (Coagulation factor X [1]): 0.1 µM; IC50 (Plasminogen [3]): 240 µM; IC50 (Plasma kallikrein [4]): 7.2 µM |
| COC(=O)c1oc2c(sc3ccccc32)c1OC(=O)N(C)C | – | – | > 10 µM | – |
| CN[C@H](C(=O)N1CCC[C@H]1C(=O)N[C@@H](CCCNC(=N)N)C(=O)O)c1ccccc1 (H-[NMePhg]-Pro-Arg-OH) | – | – | 0.02 µM | – |
| CN[C@@H](C(=O)N1CCC[C@H]1C(=O)N[C@H](C=O)CCCNC(=N)N)c1ccccc1 (H-[dNMePhg]-Pro-Arg-aldehyde) | 43 µM | 0.02 µM | – | IC50 (Plasminogen [5]): 0.5 µM; IC50 (Coagulation factor X [6]): 2.2 µM; IC50 (Plasma kallikrein [7]): 12 µM |

Continued, in another order:

| IC50 [2] | IC50 (Serine protease 1) | IC50 (Prothrombin) | Structure (SMILES) | further results |
| --- | --- | --- | --- | --- |
| – | – | > 10 µM | COC(=O)c1oc2c(sc3ccccc32)c1O | – |
| – | – | > 10 µM | COC(=O)c1oc2c(sc3ccccc32)c1OC | – |
